# Data published in DBAASP.
# How the values were obtained:
# Assay in all cases: ≥ marks a high value that may be exact or a test limit, other limits are often not marked, values filed in µg/mL are converted to µM
# [1] = test system: Pseudomonas aeruginosa PAO1
# [2] = test system: Staphylococcus aureus ATCC 29213
# Candida albicans MDM8 = test system: Candida albicans MDM8
# [3] = test system: Bacillus megaterium ATCC 10778
# [4] = test system: Enterobacter cloacae beta-12
# [5] = test system: Escherichia coli NCTC 12923
# Escherichia coli SBS 363 = test system: Escherichia coli SBS 363
# [6] = test system: Pseudomonas aeruginosa NCIB 10421
# [7] = test system: Pseudomonas aeruginosa NCTC 13437
# [8] = test system: Acinetobacter baumannii ATCC 17978
# [9] = test system: Bacillus subtilis ATCC 6633
# [10] = test system: Serratia marcescens ATCC 4112
# [11] = test system: Klebsiella pneumoniae NCTC 13368
# [12] = test system: Staphylococcus aureus ATCC 9144
# [13] = test system: Candida tropicalis IOC 4560
# Micrococcus luteus A270 = test system: Micrococcus luteus A270
# [14] = test system: Staphylococcus aureus USA 300
# [15] = test system: Lacticaseibacillus rhamnosus 1.0386
# [16] = test system: Lacticaseibacillus rhamnosus 7469
# [17] = test system: Pseudomonas aeruginosa ATCC 27853
# [18] = test system: Lacticaseibacillus rhamnosus 1.0925
# Escherichia coli UB1005 = test system: Escherichia coli UB1005
# [19] = test system: Lacticaseibacillus rhamnosus 1.0385
# [20] = test system: Staphylococcus epidermidis ATCC 12228
# [21] = test system: Escherichia coli ATCC 25922
# [22] = test system: Lacticaseibacillus rhamnosus 1.0911
# [23] = test system: Staphylococcus aureus ATCC 43300
# [24] = test system: Lactiplantibacillus plantarum 8014
# [25] = test system: Escherichia coli ATCC 11229
# [26] = test system: Staphylococcus aureus ATCC 25923
# [27] = test system: Staphylococcus aureus ATCC 33591
MIC [2] [µM],MIC [15] [µM],MIC [16] [µM],MIC [17] [µM],MIC [18] [µM],MIC (Escherichia coli UB1005) [µM],MIC [19] [µM],MIC [20] [µM],MIC [22] [µM],MIC [23] [µM],Compound,MIC (Candida albicans MDM8) [µM],MIC [3] [µM],MIC [4] [µM],MIC (Escherichia coli SBS 363) [µM],MIC [6] [µM],MIC [9] [µM],MIC [10] [µM],MIC [13] [µM],MIC (Micrococcus luteus A270) [µM],MIC [24] [µM],also measured
50,,,,,,,,,,CC[C@H](C)[C@H](N)C(=O)N[C@@H](CC(C)C)C(=O)NCC(=O)N[C@@H](CCCCN)C(=O)N[C@H](C(=O)N[C@@H](Cc1c[nH]c2ccccc12)C(=O)N[C@@H](CCC(=O)O)C(=O)N1CCC[C@H]1C(=O)N[C@H](C(=O)N[C@@H](CCCCN)C(=O)N[C@@H](CO)C(=O)N[C@@H](CC(C)C)C(=O)N[C@@H](Cc1ccccc1)C(N)=O)[C@@H](C)CC)[C@@H](C)CC [ILGKIWEPIKSLF],≥ 50,3.13,≥ 50,≥ 50,≥ 50,25,3.13,12.5,12.5,,
8,16,≥ 64,8,≥ 64,16,≥ 64,8,≥ 64,4,NC(=O)[C@H](CCCN=C(N)N)NC(=O)[C@H](CCCN=C(N)N)NC(=O)[C@H](Cc1c[nH]c2ccccc12)NC(=O)[C@H](CS)NC(=O)[C@H](Cc1c[nH]c2ccccc12)NC(=O)[C@H](Cc1c[nH]c2ccccc12)NC(=O)[C@H](Cc1c[nH]c2ccccc12)NC(=O)[C@H](CS)NC(=O)[C@H](Cc1c[nH]c2ccccc12)NC(=O)[C@H](CCCN=C(N)N)NC(=O)[C@@H](N)CCCN=C(N)N [RRWCWWWCWRR],,,,,,,,,,8,MIC [21]: > 64 µM
,≥ 64,≥ 64,4,≥ 64,2,≥ 64,2,≥ 64,4,C[C@@H](O)[C@H](NC(=O)[C@H](Cc1c[nH]c2ccccc12)NC(=O)[C@H](Cc1c[nH]c2ccccc12)NC(=O)[C@H](Cc1c[nH]c2ccccc12)NC(=O)[C@@H](NC(=O)[C@H](Cc1c[nH]c2ccccc12)NC(=O)[C@H](CCCN=C(N)N)NC(=O)[C@@H](N)CCCN=C(N)N)[C@@H](C)O)C(=O)N[C@@H](Cc1c[nH]c2ccccc12)C(=O)N[C@@H](CCCN=C(N)N)C(=O)N[C@@H](CCCN=C(N)N)C(N)=O [RRWTWWWTWRR],,,,,,,,,,≥ 64,
36,,,,,,,,,,CC[C@H](C)[C@H](NC(=O)[C@H](CCCN=C(N)N)NC(=O)[C@H](CCSC)NC(=O)[C@H](C)NC(=O)[C@H](CCCN=C(N)N)NC(=O)CNC(=O)[C@H](C)NC(=O)[C@@H](NC(=O)[C@@H](N)CO)C(C)C)C(=O)NCC(=O)N[C@@H](CC(C)C)C(=O)N[C@@H](CCCN=C(N)N)C(=O)N[C@@H](Cc1ccccc1)C(=O)N[C@H](C(=O)N[C@@H](CC(C)C)C(=O)N[C@@H](CCSC)C(=O)O)C(C)C [SVAGRAMRIGLRFVLM],,,,,,,,,,,MIC [25]: ≥ 36 µM; MIC [26]: 36 µM; MIC [27]: ≥ 36 µM

Compound,MIC [2] [µM],MIC [15] [µM],MIC [16] [µM],MIC [17] [µM],MIC [18] [µM],MIC (Escherichia coli UB1005) [µM],MIC [19] [µM],MIC [20] [µM],MIC [22] [µM],MIC [23] [µM],MIC (Candida albicans MDM8) [µM],MIC [3] [µM],MIC [4] [µM],MIC (Escherichia coli SBS 363) [µM],MIC [6] [µM],MIC [9] [µM],MIC [10] [µM],MIC [13] [µM],MIC (Micrococcus luteus A270) [µM],MIC [24] [µM],also measured
CC[C@H](C)[C@H](NC(=O)[C@H](CCCCN)NC(=O)[C@H](CCC(=O)O)NC(=O)[C@H](Cc1c[nH]c2ccccc12)NC(=O)[C@H](Cc1ccccc1)NC(=O)[C@H](CCCCN)NC(=O)CNC(=O)[C@H](CC(C)C)NC(=O)[C@H](C)N)C(=O)N[C@@H](CCCCN)C(=O)N[C@@H](CO)C(=O)N[C@@H](CC(C)C)C(=O)N[C@@H](Cc1ccccc1)C(N)=O [ALGKFWEKIKSLF],3.13,,,,,,,,,,3.13,0.78,6.25,1.56,12.5,0.78,0.36,0.78,0.78,,MIC [1]: > 81.7 µM; MIC [5]: 5.11 µM; MIC [7]: ≥ 40.8 µM; MIC [8]: 2.55 µM; MIC [11]: 10.2 µM; MIC [12]: 2.55 µM; MIC [14]: 10.2 µM
